Laboratory results published in patent US7816384B2, “Method for treating a demyelinating condition” (priority 2000, dated 2010).

What was measured:
EAE = conditions: NBQX treatment in EAE; cited from earlier work
[1] = system: adoptive-transfer EAE in female SJL mice; test: Adoptive-transfer EAE, treatment with amlodipine (Example 1); type: in vivo, mouse; conditions: two representative animals per group at sampling; clinical index 0-5; control group 2.8
Procedure: FIG. 1 illustrates the clinical course of adoptive-transfer EAE and the effect of treatment with amlodipine. SJL mice were injected with 3×10^7 MBP-activated cells. Starting from Day 5 post-immunization, mice were treated with amlodipine (30 μg as one daily subcutaneous injection) or vehicle (PBS), until Day 13 (Day 9 of treatment). Data represent mean±s.e.m. differences, at respective time-points, between the vehicle-treated group and the amlodipine-treated group. *=p<0.05; **=p<0.01 (students' unpaired, two-tailed t-test); n=8 per group. Induction of Experimental Autoimmune Encephalomyelitis (EAE). Adoptive-transfer EAE was induced in female SJL mice as described ([…] et al., 1998). In brief, lymph node cells were obtained 10 days after myelin basic protein/Complete Freund's Adjuvant immunization. Cells were cultured for 4 days with 50 μg/ml of myelin basic protein, then 3×10^7 cells/mouse were injected into syngeneic mice via tail veins. Onset of disease occurred after 7-9 days. Animals were graded according to a standard clinical index (0-5). Five days after immunization, animals began treatments with one daily injection of 200 μl of vehicle (PBS), or 30 μg of amlodipine in 200 μl of PBS. Neuropathology. At selected time-points, mice from the control and treated groups were perfused with PBS or glutaraldehyde, and the CNS was prepared for frozen or 1-μm epoxy sections, respectively. […]

[2] = system: AT-EAE in female SJL/J mice; test: Adoptive-transfer EAE (AT-EAE), treatment with bepridil or nitrendipine (Example 2); type: in vivo, mouse; conditions: for difference in average disease scores between vehicle and bepridil groups: bepridil 3 mg/kg from day 3 p.t. (n=14 vs 15); for average difference in disease scores vs vehicle: average over days 13-20 p.t.
[3] = bepridil 3 mg/kg s.c. daily from day 0

## NS(=O)(=O)c1cccc2c1c([N+](=O)[O-])cc1[nH]c(=O)c(=O)[nH]c12 [NBQX, 1,2,3,4-tetrahydro-6-nitro-2,3-dioxo-benzoquinoxaline-7-sulfonamide]
EAE
  course of disease, loss of oligodendrocytes and axonal damage: significantly ameliorated the course of the disease and reduced loss of oligodendrocytes and axonal damage

## CCOC(=O)C1=C(COCCN)NC(C)=C(C(=O)OC)C1c1ccccc1Cl (stereo not shown) [amlodipine, 3-ethyl-5-methyl-2-(2-aminoethoxymethyl)-4-(2-chlorophenyl)-1,4-dihydro-6-methyl-3,5-pyridinedicarboxylate]
[1]
  average clinical score: 1.3

## CC(C)COCC(CN(Cc1ccccc1)c1ccccc1)N1CCCC1 (stereo not shown) [bepridil]
[2]; day 13 p.t.
  difference in average disease scores between vehicle and bepridil groups: 1.07 points
[2]; day 14 p.t.
  difference in average disease scores between vehicle and bepridil groups: 1.20 points
[2]; day 15 p.t.
  difference in average disease scores between vehicle and bepridil groups: 0.99 points
[2]; day 16 p.t.
  difference in average disease scores between vehicle and bepridil groups: 1.18 points
[2]; bepridil 3 mg/kg from day 3 p.t., average over days 13-16 p.t.
  average difference in disease scores between vehicle and bepridil groups: −1.11±0.05 points
[2]; [3]
  delay of overt disease onset compared with vehicle: more than 5 days
  average difference in disease scores vs vehicle: 1.66±0.06 points
[2]; bepridil 3 mg/kg s.c. daily from day 0, listed as Bepridil
  average difference in disease scores vs vehicle: −1.66±0.06 points
[2]; bepridil 3 mg/kg s.c. daily from day 0, day 13 p.t.
  reduction of daily average disease score vs vehicle: 1.8 points
[2]; bepridil 3 mg/kg s.c. daily from day 0, day 14 p.t.
  reduction of daily average disease score vs vehicle: 2.0 points
[2]; bepridil 3 mg/kg s.c. daily from day 0, day 15 p.t.
  reduction of daily average disease score vs vehicle: 1.45 points
[2]; bepridil 3 mg/kg s.c. daily from day 0, day 16 p.t.
  reduction of daily average disease score vs vehicle: 1.65 points
[2]; bepridil 3 mg/kg s.c. daily from day 0, day 17 p.t.
  reduction of daily average disease score vs vehicle: 1.60 points
[2]; bepridil 3 mg/kg s.c. daily from day 0, day 18 p.t.
  reduction of daily average disease score vs vehicle: 1.60 points
[2]; bepridil 3 mg/kg s.c. daily from day 0, day 19 p.t.
  reduction of daily average disease score vs vehicle: 1.70 points
[2]; bepridil 3 mg/kg s.c. daily from day 0, day 20 p.t.
  reduction of daily average disease score vs vehicle: 1.5 points

## CCOC(=O)C1=C(C)NC(C)=C(C(=O)OC)C1c1cccc([N+](=O)[O-])c1 (stereo not shown) [nitrendipine, ethyl methyl-1,4-dihydro-2,6-dimethyl-4-(m-nitrophenyl)-3,5-pyridinedicarboxylate]
[2]; nitrendipine 2.5 mg/kg s.c. daily from day 0, average over days 15-20 p.t.
  average amelioration of clinical impairment vs vehicle: −1.77±0.11 points
[2]; nitrendipine 2.5 mg/kg s.c. daily from day 0, day 15 p.t.
  amelioration of clinical impairment (disability score) vs vehicle: 1.5 points
[2]; nitrendipine 2.5 mg/kg s.c. daily from day 0, day 16 p.t.
  amelioration of clinical impairment (disability score) vs vehicle: 1.7 points
[2]; nitrendipine 2.5 mg/kg s.c. daily from day 0, day 17 p.t.
  amelioration of clinical impairment (disability score) vs vehicle: 1.9 points
[2]; nitrendipine 2.5 mg/kg s.c. daily from day 0, day 18 p.t.
  amelioration of clinical impairment (disability score) vs vehicle: 2.25 points
[2]; nitrendipine 2.5 mg/kg s.c. daily from day 0, day 19 p.t.
  amelioration of clinical impairment (disability score) vs vehicle: 1.65 points
[2]; nitrendipine 2.5 mg/kg s.c. daily from day 0, day 20 p.t.
  amelioration of clinical impairment (disability score) vs vehicle: 1.6 points
